Measurements: the CheMixHub ionic liquid set

Test: xn = mol fraction of the nth substance listed
Details: 100 kPa

CC(=O)[O-].CCCC[N+](CCCC)(CCCC)CCCC + CCCCCCCCCCCC[N+](C)(C)C.[Br-] + O
viscosity [mPa·s]
Details	x2 = 5.421e-05, x1 = 0.0001802	x2 = 0.0001084, x1 = 0.0001801	x2 = 0.0001626, x1 = 0.0001801	x2 = 0.0002168, x1 = 0.0001801	x2 = 0.000271, x1 = 0.0001801	x2 = 0.0003252, x1 = 0.0001801	x2 = 0.0003793, x1 = 0.0001801	x2 = 0.0004335, x1 = 0.0001801	x2 = 0.0004877, x1 = 0.0001801	x2 = 0.0005418, x1 = 0.0001801
293.15 K	1.029	1.031	1.032	1.033	1.034	1.034	1.035	1.035	1.035	1.035
298.15 K	0.916	0.919	0.92	0.922	0.924	0.926	0.928	0.929	0.93	0.931
303.15 K	0.808	0.81	0.813	0.816	0.817	0.82	0.82	0.82	0.822	0.821
308.15 K	0.724	0.726	0.727	0.729	0.729	0.73	0.731	0.731	0.732	0.732
313.15 K	0.657	0.659	0.662	0.664	0.665	0.667	0.667	0.668	0.669	0.669
318.15 K	0.607	0.607	0.609	0.61	0.611	0.613	0.613	0.617	0.618	0.619
